27 compounds from ChEMBL document CHEMBL1144487 (Bioorg Med Chem, 2007) can be followed below.

Series [1] in a line: Cytotoxicity against rat H-ras transformed NRK H/1.2 cells after 5 days. In kind it is cell-based. Particulars: NRK H/1.2, 120 h, read-out: LC50 (the source's name).
Series [2] is described as follows: Cytotoxicity against mouse 3LL cells after 5 days. In kind it is cell-based. Particulars: 120 h, read-out: LC50 (the source's name).
A short description of series [3]: Differential index, LC50 for rat NRK 52E cells to LC50 for mouse 3LL cells. In kind it is ADME, cell-based. Particulars: NRK 52E cells versus 3LL cells.
A short description of series [4]: Cytotoxicity against rat K-ras transformed NRK K/1 cells after 5 days. The class given is cell-based. The following applies: NRK K/1, 120 h, read-out: LC50 (the source's name).
Series [5] is described as follows: Cytotoxicity against rat N-ras transformed NRK N/4.2 cells after 5 days. In kind it is cell-based. Particulars: NRK N/4.2, 120 h, read-out: LC50 (the source's name).
The nature of series [6]: Differential index, LC50 for rat NRK 52E cells to LC50 for rat K-ras transformed NRK K/1 cells. In kind it is ADME, cell-based. The following applies: NRK 52E cells versus K-ras transformed NRK K/1 cells.
Series [7] can be described thus: Differential index, LC50 for rat NRK 52E cells to LC50 for rat N-ras transformed NRK N/4.2 cells. In kind it is ADME, cell-based. Particulars: NRK 52E cells versus N-ras transformed NRK N/4.2 cells.
A short description of series [8]: Cytotoxicity against rat NRK 52E cells after 5 days. The following applies: read-out: LC50. The class given is cell-based.
Series [9] in a line: Differential index, LC50 for rat NRK 52E cells to LC50 for rat H-ras transformed NRK H/1.2 cells. Particulars: NRK 52E cells versus H-ras transformed NRK H/1.2 cells. In kind it is ADME, cell-based.

Bounds are passed on as bounds.

`CC(=O)NC1=CC(=O)c2ccc(-c3[nH]c(CO)cc4c5ccccc5nc3-4)nc2C1=O`: the CC50 in series [1] was found to be 200 nM; in series [2], 440 nM; in series [4], 200 nM; in series [5], 220 nM. Besides, the selectivity ratio in series [3] was 0.6; in series [6], 1.2; in series [7] it was 1.1; in [9] it was 1.2. The CC50 at 120 h in series [8] came out at 250 nM.

As to `CC(=O)NC1=CC(=O)c2ccc(-c3[nH]ccc4c5ccccc5nc3-4)nc2C1=O`, the CC50 in series [1] worked out at 400 nM; in [2] it was 3000 nM; in series [4], 440 nM; in series [5] it was 490 nM. In addition, the selectivity ratio turned out to be 0.1 in [3], 0.9 in series [6], 0.8 in series [7] and 1 in series [9]. Further, the CC50 at 120 h in [8] was determined as 400 nM.

In the case of `CC(C)CCOC(=O)c1cc2c([nH]c3ccccc32)c(-c2ccc3c(n2)C(=O)C(NC(=O)CCl)=CC3=O)n1`, the CC50 in series [1] is 1320 nM; in series [2] it was 3200 nM; in series [4], 560 nM; in [5] it was 1200 nM. Besides, the selectivity ratio in series [3] was determined as 0.4; in series [6], 2.4; in series [7] it was 1.1; in series [9] it was 1. For the same compound, in series [8], the CC50 at 120 h was 1350 nM.

As for `Cc1ccc2c(n1)C(=O)C(NC(=O)CCl)=CC2=O`, the CC50 was 2800 nM in series [1], 2300 nM in series [2], 6600 nM in [4] and 3400 nM in series [5]. In addition, the CC50 at 120 h in series [8] worked out at 3200 nM.

On to `CCCCOC(=O)c1cc2c([nH]c3ccccc32)c(-c2ccc3c(n2)C(=O)C(NC(=O)CCl)=CC3=O)n1`, for which the CC50 in [1] is 740 nM; in series [2], 2300 nM; in series [4], 520 nM; in [5] it was 1050 nM. Moreover, the selectivity ratio in [3] was 0.4; in series [6], 1.8; in series [7], 0.9; in series [9], 1.3. The CC50 at 120 h in series [8] is 960 nM.

On to `CCCCCCCCOC(=O)c1cc2c([nH]c3ccccc32)c(-c2ccc3c(n2)C(=O)C(NC(=O)CCl)=CC3=O)n1`, for which the CC50 in [1] is greater than 33000 nM; in [2], greater than 33000 nM; in series [4], 15000 nM; in [5], greater than 33000 nM. Besides, the figures for the selectivity ratio in [6] and in series [7] were greater than 2.2 and 1, respectively. Besides, the CC50 at 120 h in series [8] is greater than 33000 nM.

Regarding `CCCCOC(=O)c1cc2c([nH]c3ccc(F)cc32)c(-c2ccc3c(n2)C(=O)C(NC(C)=O)=CC3=O)n1`, the CC50 was determined as 700 nM in series [1], 2100 nM in series [2], 330 nM in series [4] and 840 nM in [5]. Further, the selectivity ratio in series [3] was 0.3; in series [6] it was 1.9; in series [7] it was 0.8; in series [9] it was 0.9. For the same compound, in [8], the CC50 at 120 h amounted to 620 nM.

As for `COC(=O)c1nc(-c2ccc3c(n2)C(=O)C(NC(=O)CCl)=CC3=O)c2[nH]c3ccccc3c2c1C`, the CC50 in [1] came to 580 nM; in [2], 2000 nM; in series [4] it was 790 nM; in [5], 700 nM. Also, the selectivity ratio stood at 0.3 in series [3], 0.7 in [6], 0.8 in series [7] and 1 in series [9]. The CC50 at 120 h in series [8] was 580 nM.

As for `CC(=O)NC1=CC(=O)c2cc(C)cnc2C1=O`, the CC50 in [1] was 1100 nM; in series [2], 1000 nM; in series [4], 1800 nM. Further, the CC50 at 120 h in series [8] was 1300 nM.

`CC(=O)NC1=CC(=O)c2nc(C)ccc2C1=O`: the CC50 in [1] was 20000 nM; in series [2], greater than 33000 nM; in series [4], greater than 33000 nM. For the same compound, the CC50 at 120 h in series [8] was found to be 21500 nM.

Regarding `CC(C)C(=O)NC1=CC(=O)c2ccc(C=O)nc2C1=O`, the CC50 in [1] was greater than 3300 nM; in series [2], 1000 nM; in series [4], 2150 nM; in [5] it was greater than 3300 nM. For the same compound, the CC50 at 120 h in series [8] is greater than 3300 nM.

Regarding `COC(=O)c1cc2c([nH]c3ccccc32)c(-c2ccc3c(n2)C(=O)C(NC(=O)C(C)C)=CC3=O)n1`, the CC50 is 660 nM in series [1], 1300 nM in [2], 500 nM in [4] and 640 nM in series [5]. The selectivity ratio came to 0.5 in series [3], 1.4 in series [6], 1.1 in series [7] and 1.1 in [9]. Moreover, the CC50 at 120 h in [8] is 700 nM.

With `NC1=CC(=O)c2ccc(C=O)nc2C1=O`, the values for the CC50 in series [1], in [2] and in [4] were 2200 nM, 2300 nM and 4300 nM, respectively. In addition, the CC50 at 120 h in series [8] came out at 2400 nM.

As to `CC(=O)NC1=CC(=O)c2ccc(C(=O)O)nc2C1=O`, the CC50 in series [1] is greater than 31000 nM; in series [2], 26000 nM; in series [4], greater than 33000 nM. The CC50 at 120 h in series [8] is greater than 33000 nM.

For `CCCC(=O)NC1=CC(=O)c2ccc(-c3nc(C(=O)OC)cc4c3[nH]c3ccccc34)nc2C1=O`, the CC50 turned out to be 660 nM in series [1], 1300 nM in series [2], 500 nM in series [4] and 640 nM in series [5]. In addition, the selectivity ratio in [3] was found to be 0.5; in [6], 1.4; in series [7] it was 1.1; in series [9], 1.1. Also, the CC50 at 120 h in [8] is 700 nM.

`CCCC(=O)NC1=CC(=O)c2ccc(-c3nc(C(=O)OC)c(C)c4c3[nH]c3ccccc34)nc2C1=O`: the CC50 in series [1] amounted to 400 nM; in series [2], 820 nM; in series [4] it was 330 nM; in series [5] it was 420 nM. The selectivity ratio in series [3] was found to be 0.4; in series [6], 1; in series [7], 0.8; in series [9] it was 0.8. Further, the CC50 at 120 h in series [8] turned out to be 320 nM.

Take `CCCCOC(=O)c1cc2c([nH]c3ccccc32)c(-c2ccc3c(n2)C(=O)C(NC(=O)C(C)C)=CC3=O)n1`: the CC50 in series [1] was found to be 610 nM; in series [2] it was 900 nM; in [4] it was 400 nM; in series [5] it was 500 nM. Further, the selectivity ratio amounted to 1 in [3], 2.3 in series [6], 1.8 in [7] and 1.5 in series [9]. Also, the CC50 at 120 h in [8] was determined as 900 nM.

`CC(=O)NC1=CC(=O)c2ccc(C=O)nc2C1=O`: the CC50 came to 2500 nM in series [1], 1200 nM in series [2] and 2600 nM in series [4]. Also, in series [8], the CC50 at 120 h amounted to 1300 nM.

In the case of `Cc1ccc2c(n1)C(=O)C(N)=CC2=O`, the CC50 in series [1] came out at 600 nM; in [2], 800 nM; in [4] it was 1300 nM. Further, the CC50 at 120 h in series [8] was 800 nM.

For the compound `CC(=O)NC1=CC(=O)c2ccc(-c3[nH]c(C(=O)O)cc4c5ccccc5nc3-4)nc2C1=O`, the CC50 in series [1] was found to be 110 nM; in [2], 400 nM; in series [4], 70 nM; in series [5] it was 100 nM. Further, the selectivity ratio worked out at 0.4 in [3], 2.1 in series [6], 1.5 in series [7] and 1.4 in [9]. In series [8], the CC50 at 120 h is 150 nM.

Take `CCCC(=O)NC1=CC(=O)c2ccc(-c3nc(C(=O)OCCC(C)C)cc4c3[nH]c3ccccc34)nc2C1=O`: the CC50 in [1] came to 370 nM; in series [2], 2400 nM; in series [4], 600 nM; in series [5], 650 nM. Besides, the selectivity ratio in series [3] worked out at 0.4; in [6] it was 1.6; in series [7] it was 1.5; in series [9] it was 2.7. The CC50 at 120 h in series [8] was 1000 nM.

For `COC(=O)c1cc2c([nH]c3ccccc32)c(-c2ccc3c(n2)C(=O)C(NC(C)=O)=CC3=O)n1`, the CC50 was 510 nM in [1], 840 nM in [2], 110 nM in series [4] and 520 nM in series [5]. Moreover, the selectivity ratio in series [3] came to 0.6; in series [6], 4.5; in [7], 1; in series [9] it was 1. The CC50 at 120 h in series [8] was found to be 500 nM.

For the compound `COC1=CC(=O)c2ccc(C)nc2C1=O`, the CC50 in series [1] was 4200 nM; in [2], 7400 nM; in [4] it was 11800 nM. For the same compound, the CC50 at 120 h in series [8] came to 6900 nM.

Take `O=Cc1ccc2c(n1)C(=O)C(NC(=O)CCl)=CC2=O`: the CC50 in series [1] stood at 3400 nM; in series [2] it was 2100 nM; in series [4], 5800 nM; in [5] it was 3200 nM. Further, the CC50 at 120 h in series [8] was 3600 nM.

`Cc1ccc2c(n1)C(=O)C(NC(=O)C(C)C)=CC2=O`: the CC50 in [1] amounted to 1450 nM; in [2], 710 nM; in series [4] it was 7500 nM; in series [5], 1150 nM. Also, the CC50 at 120 h in series [8] worked out at 1500 nM.

Take `Cc1ccc2c(n1)C(=O)C(NCCCCO)=CC2=O`: the results for the CC50 in [1], in series [2] and in series [4] were 10500 nM, 3800 nM and 13500 nM, respectively. Moreover, in [8], the CC50 at 120 h is 10500 nM.

`CC(=O)NC1=CC(=O)c2ccc(-c3nc(C(=O)OCc4ccccc4)cc4c3[nH]c3ccccc34)nc2C1=O`: the CC50 was greater than 10000 nM in [1], greater than 33000 nM in [2], 9500 nM in series [4] and greater than 33000 nM in series [5]. Moreover, the selectivity ratio is less than 0.3 in series [3], 1 in series [6], less than 0.3 in series [7] and less than 0.9 in [9]. In addition, the CC50 at 120 h in series [8] came to 9500 nM.
